Results taken from patent US9714266B2, “Estra-1,3,5(10),16-tetraene-3-carboxamides for inhibition of 17β-hydroxysteroid dehydrogenase (AKR1C3)” (priority 2013, dated 2017).
Values after ≈ are worked out from the molar mass of the structure shown. Values joined by “and” are separate entries in the source; they are usually repeats but may differ in a detail not shown here. Equal values may be shown once. Read-outs that look alike come from different tables or passages of the source.

Key:
[1] = Kinetic solubility by laser nephelometry; type: physicochemical; details: kinetic from dmso stock
Experimental: The kinetic solubilities of the inventive substances were determined by laser nephelometry.
The data were recorded using the following instruments:
Liquid handling system: Hamilton Star
Nephelometer: Nepheloskan Ascent
The following chemicals and materials were used: […]
disodium hydrogenphosphate dihydrate potassium dihydrogenphosphate
Preparation of phosphate buffer pH 7.4:
• Solution 1: 9.71 g of disodium hydrogenphosphate dihydrate and • 1.65 g of potassium dihydrogenphosphate dissolved in 1 liter of water • Solution 2: 10 mg of gum arabic dissolved in 1 liter of water […]
150 ml of solution 1 and 100 ml of solution 2 were diluted with 750 ml of water.
150 μl of a 10 mM DMSO stock solution were pipetted into a plate (deep-well plate, Abgene, PP, 1.2 ml). The stock solution was diluted with DMSO, which led to a new multi-titre plate (MTP, Greiner bio-one, PS, V-Form) with eight concentrations: 10/5/2.5/1.25/0.625/0.313/0.156 and 0.078 mM. 261 μl of phosphate buffer were transferred into a further plate (96 cliniplate, UB Thermo Electron Corporation) and admixed with 9 μl of the DMSO stock solutions.
The concentration of the DMSO cosolvent was kept constant at 3%.
The plates obtained (cliniplates) were analysed in the nephelometer.

AKR1C3 = AKR1C3 (Homo sapiens (Human), UniProt P42330); assay: AKR1C3 enzyme assay (coumberone reduction, fluorescence); type: biochemical; details: recombinant human AKR1C3, coumberone 0.3 μM, NADPH 10 μM; read-out: AKR1C3 enzyme inhibition IC50
Experimental: The AKR1C3-inhibitory action of the substances of this invention was measured in the AKR1C3 assay described in the paragraphs which follow. Essentially, the enzyme activity is measured by quantifying the coumberol formed from coumberone ([…]., and […]. AM. CHEM. SOC. 130, 14123-14128 (2008) […]., Bauman, D. R., Penning, T. M., and […]., Proc. Natl. Acad. Sci. USA 103, 13304-13309 (2006)). In this assay, the increase in the highly fluorescent coumberol can be determined by NADPH (nicotinamide adenine dinucleotide phosphate)-dependent reduction of the nonfluorescent coumberone by AKR1C3. […] NM_003739). This was expressed as the GST (glutathione S-transferase) fusion protein in E. coli and purified by means of glutathione-Sepharose affinity chromatography. The GST was removed by thrombin digestion with subsequent size exclusion chromatography (Dufort, I., Rheault, P., Huang, X F., Soucy, P., and Luu-The, V., Endocrinology 140, 568-574 (1999)). […] The concentration of the AKR1C3 was matched to the respective activity of the enzyme preparation and set such that the assay worked within the linear range. Typical concentrations were in the region of 1 nM. The reaction was stopped by adding 5 μl of a stop solution consisting of the inhibitor EM-1404 [F. Labrie et al. U.S. Pat. […] Subsequently, the fluorescence of coumberol was measured at 520 nm (excitation at 380 nm) with a suitable measuring instrument (Pherastar from BMG Labtechnologies).

[2] = phosphate buffer with 3% DMSO, aqueous buffer, phosphate buffer pH 7.4, 3% DMSO, read-out: Nephelometric solubility at pH = 7.4

Chain of AKR1C3 (P42330 whole entry): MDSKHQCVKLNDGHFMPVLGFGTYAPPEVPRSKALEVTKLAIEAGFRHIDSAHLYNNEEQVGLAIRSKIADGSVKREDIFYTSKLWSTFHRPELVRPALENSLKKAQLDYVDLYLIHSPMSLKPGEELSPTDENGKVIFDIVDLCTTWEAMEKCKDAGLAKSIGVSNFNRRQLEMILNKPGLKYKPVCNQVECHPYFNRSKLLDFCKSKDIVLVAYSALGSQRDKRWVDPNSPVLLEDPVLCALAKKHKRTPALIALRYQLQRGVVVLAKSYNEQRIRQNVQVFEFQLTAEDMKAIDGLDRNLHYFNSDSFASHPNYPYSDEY

Structure (SMILES) | solubility ([1]; pH 7.4, aqueous buffer) | IC50 (AKR1C3) | solubility [1, 2]
C[C@]12CC[C@@H]3c4ccc(C(=O)N5CCC[C@H]5c5nnn[nH]5)cc4CC[C@H]3[C@@H]1CC=C2c1cncc(F)c1 [Example 28, 17-(5-fluoropyridin-3-yl)oestra-1,3,5(10),16-tetraen-3-yl (S)-2-(1H-tetrazol-5-yl)pyrrolidin-1-yl ketone] | 166 µg/mL (≈ 333 µM) | 9 nM | –
C[C@@H](CO)NC(=O)c1ccc2c(c1)CC[C@@H]1[C@@H]2CC[C@]2(C)C(c3cncc(F)c3)=CC[C@@H]12 [Example 40, 17-(5-fluoropyridin-3-yl)-N—[(S)-1-(hydroxymethyl)ethyl]oestra-1,3,5(10),16-tetraene-3-carboxamide] | 145 µg/mL (≈ 334 µM) | – | –
CN(CC(O)CO)C(=O)c1ccc2c(c1)CC[C@@H]1[C@@H]2CC[C@]2(C)C(c3cncc(F)c3)=CC[C@@H]12 (mixture of isomers) [Example 35, N—[(RS)-2,3-dihydroxypropyl]-17-(5-fluoropyridin-3-yl)-N-methyloestra-1,3,5(10),16-tetraene-3-carboxamide] | – | 17 nM | 22 µg/mL
CC1(C)CC[C@@]2(CC[C@H]3[C@@H]4CCc5cc(C(N)=O)ccc5[C@H]4CC[C@@]32C)OC1=O [EM-1404, reference compound] | – | – | 18 µg/mL (≈ 45.5 µM)
C[C@]12CC[C@@H]3c4ccc(C(=O)NC5(CO)CCCC5)cc4CC[C@H]3[C@@H]1CC=C2c1cncc(F)c1 [Example 13, 17-(5-fluoropyridin-3-yl)-N-[1-(hydroxymethyl)cyclopentyl]oestra-1,3,5(10),16-tetraene-3-carboxamide] | – | 108 nM and 79 nM | –
C[C@]12CC[C@@H]3c4ccc(C(N)=O)cc4CC[C@H]3[C@@H]1CC=C2c1cncc(C#N)c1 [Example 6, 17-(5-cyanopyridin-3-yl)oestra-1,3,5(10),16-tetraene-3-carboxamide] | – | 346 nM | –
COCCNC(=O)c1ccc2c(c1)CC[C@@H]1[C@@H]2CC[C@]2(C)C(c3cncc(F)c3)=CC[C@@H]12 [Example 41, 17-(5-fluoropyridin-3-yl)-N-(2-methoxyethyl)oestra-1,3,5(10),16-tetraene-3-carboxamide] | – | 8 nM | –
C[C@]12CC[C@@H]3c4ccc(C(=O)NC[C@@H](O)CO)cc4CC[C@H]3[C@@H]1CC=C2c1cncc(F)c1 [Example 36, N—[(R)-2,3-dihydroxypropyl]-17-(5-fluoropyridin-3-yl)oestra-1,3,5(10),16-tetraene-3-carboxamide] | – | 6 nM | –
C[S+]([O-])CCNC(=O)c1ccc2c(c1)CC[C@@H]1[C@@H]2CC[C@]2(C)C(c3cncc(F)c3)=CC[C@@H]12 (some centres unmarked) [Example 37, 17-(5-fluoropyridin-3-yl)-N-[2-(methylsulphinyl)ethyl]oestra-1,3,5(10),16-tetraene-3-carboxamide] | – | 5 nM | –
CN(CCCO)C(=O)c1ccc2c(c1)CC[C@@H]1[C@@H]2CC[C@]2(C)C(c3cncc(F)c3)=CC[C@@H]12 [Example 34, 17-(5-fluoropyridin-3-yl)-N-(3-hydroxypropyl)-N-methyloestra-1,3,5(10),16-tetraene-3-carboxamide] | – | 6 nM | –
CC(C)(CNC(=O)c1ccc2c(c1)CC[C@@H]1[C@@H]2CC[C@]2(C)C(c3cncc(F)c3)=CC[C@@H]12)NS(C)(=O)=O [Example 31, 17-(5-fluoropyridin-3-yl)-N-{2-methyl-2-[(methylsulphonyl)amino]propyl}oestra-1,3,5(10),16-tetraene-3-carboxamide] | – | 19 nM | –
C[C@]12CC[C@@H]3c4ccc(C(=O)NCCS(N)(=O)=O)cc4CC[C@H]3[C@@H]1CC=C2c1cncc(C(F)(F)F)c1 [Example 24, N-(2-sulphamoylethyl)-17-[5-(trifluoromethyl)pyridin-3-yl]oestra-1,3,5(10),16-tetraene-3-carboxamide] | – | 17 nM | –
